Key:
[1] = test system: glaucoma patients; conditions: human, in vivo
Description: (§1) The clinical tests on glaucoma patients were performed with an ophthalmic ointment comprising 0.01 % and 0.025 % of dihydro­ergotoxine methanesulfonate or bromocryptine methanesulfonate.
The effect of the ophthalmic ointment comprising 0.025 % of dihydroergotoxine methanesulfonate or bromocryptine methane­sulfonate on the intraocular pressure in both eyes was tested in four male and three female glaucoma patients, agend from 31 to 64 years.
The ointment was applied into the conjunctival sac in the morning and in the evening. Before application, the I.O.P. was measured. This procedure was repeated for five days.

[2] = test system: glaucoma patients; assay: Clinical trial: effect of ophthalmic ointment comprising 0.01 % active substance on intraocular pressure (I.O.P.); conditions: human, in vivo
Description: as §1
Effect of ophthalmic ointment comprising 0.01 % of dihydroer­gotoxine methanesulfonate or bromocryptine methanesulfonate on the intraocular pressure (I.O.P.) in glaucoma patients
The effect of the ophthalmic ointment comprising 0.01 % of dihydroergotoxine (as base and as methanesulfonate salt) and of bromocryptine methanesulfonate on the intraocular pressure in both eyes was tested in five male and three female glaucoma patients aged from 34 to 62 years.

Structure (SMILES): CC(C)C[C@H]1C(=O)N2CCC[C@H]2[C@]2(O)O[C@](NC(=O)[C@@H]3C=C4c5cccc6[nH]c(Br)c(c56)C[C@H]4N(C)C3)(C(C)C)C(=O)N12 [bromocryptine methanesulfonate]
- I.O.P. from which it decreased [1]: 4.00 kPa
- I.O.P. to which it decreased [1]: 2.67 kPa
- reduction of intraocular pressure [1]: 30%
- undesired side effects [1]: No undesired side effects
- maximum reduction of I.O.P. [2]: 21%
- time for which the effect (reduction of I.O.P.) was present [2]: at least five
